Reference: ChEMBL document CHEMBL3124844 (J Med Chem, 2014)

Columns and labels:
[1] = target: T1, Sodium-dependent dopamine transporter (Rattus norvegicus, UniProt P23977); assay: Displacement of [3H]WIN35,428 from Sprague-Dawley rat brain DAT after 120 mins by liquid scintillation counting analysis; assay type: tissue-based
[2] = target: Sodium-dependent serotonin transporter (Rattus norvegicus, UniProt P31652); assay: Displacement of [3H]citalopram from Sprague-Dawley rat brain SERT after 60 mins by liquid scintillation counting analysis; assay type: tissue-based
[3] = target: Sodium-dependent serotonin transporter (Rattus norvegicus) (UniProt P31652); assay: Displacement of [3H]citalopram from Sprague-Dawley rat brain SERT at 100 uM after 60 mins by liquid scintillation counting analysis relative to control; assay type: tissue-based
Rattus norvegicus [4] = organism: Rattus norvegicus; assay: Displacement of [3H]nisoxetine from Sprague-Dawley rat brain NET at 100 uM after 180 mins by liquid scintillation counting analysis relative to control; assay type: tissue-based
[5] = Displacement of [3H]nisoxetine from Sprague-Dawley rat brain NET after 180 mins by liquid scintillation counting analysis; assay type: tissue-based
[6] = target: T1, Sodium-dependent dopamine transporter; assay: Displacement of [3H]WIN35,428 from rat brain DAT; assay type: tissue-based
Rattus norvegicus [7] = organism: Rattus norvegicus; assay: Selectivity ratio of Ki for Sprague-Dawley rat brain SERT to Ki for Sprague-Dawley rat brain DAT

Chain of Sodium-dependent serotonin transporter (P31652 whole entry): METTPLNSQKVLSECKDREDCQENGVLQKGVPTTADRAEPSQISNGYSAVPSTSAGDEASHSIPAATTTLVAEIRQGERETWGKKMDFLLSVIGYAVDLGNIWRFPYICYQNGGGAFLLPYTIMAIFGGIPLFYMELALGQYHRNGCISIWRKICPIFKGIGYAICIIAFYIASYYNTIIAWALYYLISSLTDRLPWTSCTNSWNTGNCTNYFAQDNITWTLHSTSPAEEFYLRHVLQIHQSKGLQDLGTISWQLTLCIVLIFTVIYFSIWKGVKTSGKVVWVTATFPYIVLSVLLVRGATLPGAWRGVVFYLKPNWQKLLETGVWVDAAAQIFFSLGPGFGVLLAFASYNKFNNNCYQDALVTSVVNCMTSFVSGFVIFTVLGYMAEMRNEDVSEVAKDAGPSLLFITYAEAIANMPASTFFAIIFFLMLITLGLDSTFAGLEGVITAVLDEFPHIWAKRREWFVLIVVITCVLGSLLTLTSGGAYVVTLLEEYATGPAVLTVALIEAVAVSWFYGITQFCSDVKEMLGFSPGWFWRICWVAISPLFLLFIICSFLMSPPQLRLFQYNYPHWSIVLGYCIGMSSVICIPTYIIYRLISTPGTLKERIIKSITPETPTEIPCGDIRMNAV
Chain of Sodium-dependent serotonin transporter (Rattus norvegicus) (P31652 whole entry): as above
T1 sequence (P23977 whole entry): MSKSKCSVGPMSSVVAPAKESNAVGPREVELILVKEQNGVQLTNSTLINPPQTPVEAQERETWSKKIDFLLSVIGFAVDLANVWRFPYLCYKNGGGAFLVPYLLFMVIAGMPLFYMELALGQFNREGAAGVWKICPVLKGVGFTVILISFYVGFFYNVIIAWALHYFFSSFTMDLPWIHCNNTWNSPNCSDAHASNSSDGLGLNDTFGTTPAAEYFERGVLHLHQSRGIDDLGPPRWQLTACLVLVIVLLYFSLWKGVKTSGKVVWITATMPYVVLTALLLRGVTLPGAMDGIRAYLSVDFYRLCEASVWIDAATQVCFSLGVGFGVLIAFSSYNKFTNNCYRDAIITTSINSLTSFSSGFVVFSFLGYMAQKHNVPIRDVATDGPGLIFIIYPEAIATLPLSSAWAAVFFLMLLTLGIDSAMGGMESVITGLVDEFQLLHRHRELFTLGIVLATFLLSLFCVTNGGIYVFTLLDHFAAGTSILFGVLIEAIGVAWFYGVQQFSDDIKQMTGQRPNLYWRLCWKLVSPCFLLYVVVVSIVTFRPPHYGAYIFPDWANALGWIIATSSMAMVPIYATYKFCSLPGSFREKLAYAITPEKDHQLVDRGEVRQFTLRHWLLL

`O=C(CSC(c1ccc(F)cc1)c1ccc(F)cc1)NCC1CC1` gave a Ki [1] of 6.7 µM and a Ki [2] of 34 µM.
In the case of `O=C(CSC(c1ccccc1)c1ccccc1)NCCCCc1ccccc1`, the inhibition [3] is reported as less than 50%.
With `O=C(C[S+]([O-])C(c1ccc(Br)cc1)c1ccc(Br)cc1)NCCCc1ccccc1` (stereo not given) the inhibition (Rattus norvegicus [4]) was less than 50% and the Ki [2] was 0.892 µM.
For `NC(=O)CSC(c1ccccc1)c1ccccc1`, the Ki [5] was 285 µM and the inhibition (Rattus norvegicus [4]) was less than 50%.
Work on `O=C(CSC(c1ccc(F)cc1)c1ccc(F)cc1)NCCCc1ccccc1` yielded an inhibition (Rattus norvegicus [4]) of less than 50% and a Ki [2] of 3.5 µM.
`CCCNC(=O)CSC(c1ccc(F)cc1)c1ccc(F)cc1` gave a Ki [5] of 59.7 µM and a Ki [2] of 44.2 µM.
`CCCCNC(=O)CSC(c1ccccc1)c1ccccc1` showed an inhibition [3] of less than 50% and an inhibition (Rattus norvegicus [4]) of less than 50%.
Work on `NC(=O)C[S+]([O-])C(c1ccccc1)c1cccc(Br)c1` (racemic) yielded an inhibition [3] of less than 50% and an inhibition (Rattus norvegicus [4]) of less than 50%.
Work on `NC(=O)C[S+]([O-])C(c1cccc(Cl)c1)c1cccc(Cl)c1` (stereo not given) yielded an inhibition [3] of less than 50% and an inhibition (Rattus norvegicus [4]) of less than 50%.
`CNC(=O)CSC(c1ccccc1)c1ccccc1` showed a Ki [2] of 656 µM.
With `O=C(CSC(c1ccc(Br)cc1)c1ccc(Br)cc1)NCCCc1ccccc1` the Ki [1] was 0.238 µM and the Ki [5] was 35.5 µM.
`CC(=O)N1[C@@H]2CC[C@H]1C[C@H](OC(c1ccc(F)cc1)c1ccc(F)cc1)C2` gave a Ki [6] of 2.34 µM.
`CNC(=O)CSC(c1ccc(Br)cc1)c1ccc(Br)cc1` showed a Ki [5] of 11 µM.
`NC(=O)C[S+]([O-])C(c1cccc(F)c1)c1cccc(F)c1` (stereo not given) gave a Ki [1] of 5.93 µM, an inhibition [3] of less than 50% and an inhibition (Rattus norvegicus [4]) of less than 50%.
With `NC(=O)CSC(c1cccc(Cl)c1)c1cccc(Cl)c1` the Ki [5] was 45.4 µM, the inhibition [3] was less than 50% and the Ratio Ki (Rattus norvegicus [7]) was greater than 2900. For the same molecule, the Ki [2] was 808 µM.
Work on `Cc1ccc(C(c2ccc(C)cc2)[S+]([O-])CC(N)=O)cc1` (stereo not given) yielded an inhibition [3] of less than 50% and an inhibition (Rattus norvegicus [4]) of less than 50%.
In the case of `CCCCNCCSC(c1ccccc1)c1ccccc1`, the Ki [1] is reported as 0.31 µM, the Ki [5] is reported as 11.5 µM and the Ki [2] is reported as 5.7 µM.
Work on `O=C(CSC(c1ccccc1)c1ccccc1)NCC1CC1` yielded a Ki [1] of 13.6 µM, an inhibition (Rattus norvegicus [4]) of less than 50% and a Ki [2] of 20.5 µM.
For `CCCNC(=O)CSC(c1ccc(Br)cc1)c1ccc(Br)cc1`, the Ki [5] was 10.6 µM.
Work on `NCC[S+]([O-])C(c1ccccc1)c1ccccc1` (stereo not given) yielded a Ki [2] of 3.38 µM.
Work on `[O-][S+](CCNCCCc1ccccc1)C(c1ccc(Cl)cc1)c1ccc(Cl)cc1` (stereo not given) yielded a Ki [1] of 0.645 µM, a Ki [5] of 5.67 µM and a Ki [2] of 0.553 µM.
In the case of `[O-][S+](CCNCCCc1ccccc1)C(c1ccc(Br)cc1)c1ccc(Br)cc1` (stereo not given), the Ki [1] is reported as 1.27 µM, the Ki [5] is reported as 8.65 µM and the Ki [2] is reported as 0.557 µM.
In the case of `C=CCNC(=O)CSC(c1ccccc1)c1ccccc1`, the Ki [1] is reported as 8.37 µM, the Ki [5] is reported as 171 µM and the inhibition [3] is reported as less than 50%. It also gave an inhibition (Rattus norvegicus [4]) of less than 50% and a Ki [2] of 303 µM.
Work on `O=C(CSC(c1ccc(Br)cc1)c1ccc(Br)cc1)NCC1CC1` yielded a Ki [1] of 0.975 µM, an inhibition (Rattus norvegicus [4]) of less than 50% and a Ki [2] of 7.03 µM.
Molecule `O=C(CSC(c1ccc(Br)cc1)c1ccc(Br)cc1)NCCCCc1ccccc1` has an inhibition [3] of less than 50% and an inhibition (Rattus norvegicus [4]) of less than 50%.
For `CNC(=O)C[S+]([O-])C(c1ccccc1)c1ccccc1` (stereo not given), the Ki [1] was 13.1 µM, the inhibition [3] was less than 50% and the inhibition (Rattus norvegicus [4]) was less than 50%.
`[O-][S+](CCNCCCc1ccccc1)C(c1ccc(F)cc1)c1ccc(F)cc1` (stereo not given) showed a Ki [1] of 0.183 µM and a Ki [2] of 1.28 µM.
In the case of `NCCSC(c1ccccc1)c1ccccc1`, the Ki [2] is reported as 0.221 µM.
In the case of `CCCNC(=O)CSC(c1ccccc1)c1ccccc1`, the Ki [5] is reported as 68 µM, the inhibition [3] is reported as less than 50% and the Ki [2] is reported as 419 µM.
For `CCCNC(=O)CSC(c1ccc(Cl)cc1)c1ccc(Cl)cc1`, the Ki [2] was 10.1 µM.
For `CNC(=O)CSC(c1ccc(Cl)cc1)c1ccc(Cl)cc1`, the Ki [2] was 10.7 µM.
For `c1ccc(CCCNCCSC(c2ccccc2)c2ccccc2)cc1`, the Ki [5] was 5.5 µM and the Ki [2] was 0.927 µM.
`CCCCNCC[S+]([O-])C(c1ccccc1)c1ccccc1` (stereo not given) gave a Ki [5] of 138 µM and a Ki [2] of 63.6 µM.
